Read-outs that look alike come from different tables or passages of the source.
Legend:
hDGKalpha(1-735)-N-His = hDGKalpha(1-735)-N-His (Homo sapiens (Human), UniProt P23743); assay: DGKalpha ADP Glo assay (in vitro DGK inhibition); type: biochemical; details: DLG 125 uM, ATP 25 μM, DGK α 4 nM, 1 hour reaction
How it was run: (§1)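 His-tagged human DGKα (4 nM) and DGKζ (2 nM) phosphorylate DLG presented in DLG/PS/PC liposomes using ATP; reaction run 1 hour. ADP formed measured by ADP-Glo luminescence. Compounds tested as 11-point 1:3 dose response […], 2% DMSO final.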

hDGKzeta(1-928)-N-His = hDGKzeta(1-928)-N-His (Homo sapiens (Human), UniProt Q13574); assay: DGKzeta ADP Glo assay (in vitro DGK inhibition); type: biochemical; details: DLG 125 uM, ATP 50 μM, DGK ζ 2 nM, 1 hour reaction
Sequence of hDGKzeta(1-928)-N-His (Q13574 whole entry): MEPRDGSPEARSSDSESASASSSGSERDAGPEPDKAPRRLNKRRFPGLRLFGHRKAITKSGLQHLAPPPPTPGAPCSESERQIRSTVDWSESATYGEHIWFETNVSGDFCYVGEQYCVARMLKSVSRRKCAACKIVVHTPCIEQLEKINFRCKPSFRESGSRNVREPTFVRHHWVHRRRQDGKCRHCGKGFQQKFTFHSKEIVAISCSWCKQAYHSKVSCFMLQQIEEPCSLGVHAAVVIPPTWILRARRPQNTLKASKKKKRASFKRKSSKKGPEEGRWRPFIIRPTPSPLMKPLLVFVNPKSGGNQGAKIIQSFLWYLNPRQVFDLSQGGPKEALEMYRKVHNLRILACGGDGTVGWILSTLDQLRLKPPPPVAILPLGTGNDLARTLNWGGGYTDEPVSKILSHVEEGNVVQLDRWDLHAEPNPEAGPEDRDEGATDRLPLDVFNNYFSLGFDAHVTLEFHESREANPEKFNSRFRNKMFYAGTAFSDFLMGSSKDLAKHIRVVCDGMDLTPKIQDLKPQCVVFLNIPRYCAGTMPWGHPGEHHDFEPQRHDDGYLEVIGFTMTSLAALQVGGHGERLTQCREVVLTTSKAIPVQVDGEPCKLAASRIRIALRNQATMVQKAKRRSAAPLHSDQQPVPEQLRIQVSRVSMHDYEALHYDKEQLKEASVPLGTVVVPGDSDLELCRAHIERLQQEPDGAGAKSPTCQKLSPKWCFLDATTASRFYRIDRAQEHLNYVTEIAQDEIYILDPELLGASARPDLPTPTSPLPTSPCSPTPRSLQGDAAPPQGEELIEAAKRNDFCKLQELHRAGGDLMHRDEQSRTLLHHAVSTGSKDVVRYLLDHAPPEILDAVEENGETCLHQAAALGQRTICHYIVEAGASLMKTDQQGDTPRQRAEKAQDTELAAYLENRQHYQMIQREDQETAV
How it was run: as §1

primary human T-cells [1] = assay: Proliferation assay after 5 days (CellTiter-Glo, CD3 stimulation; PBS counter screen); type: cell-based; details: CD3 stimulation; for Emax: read-out: Emax proliferation (% activation); for EC50: primary human T-cells, CellTiter-Glo after 5 days, EC50 of fitted sigmoidal curve, read-out: Tcell Proliferation CD3 EC50
How it was run: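 Primary human T-cells, with or without CD3 stimulation, exposed to compounds for 5 days; cell number read as ATP by CellTiter-Glo 2.0 luminescence after 45 min equilibration and 15 min reagent incubation at room temperature. Compounds activating unstimulated cells or reducing viability were flagged.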

MV-3 cells = assay: T-cell - TCB - MV3 killing assay (MCSP-TCB, RFP object count by Incucyte); type: cell-based, human; details: Homo sapiens, MV-3, 120 h, 5 d; for Emax: normalized: MCSP-TCB only = neutral control, 20 μM reference compound A1 = 100%, read-out: MSCP TCB killing MV-3 cells 5 d Emax; for EC50: primary human T-cells + MCSP-TCB, MV-3 RFP cells, read-out: MSCP TCB killing MV-3 cells 5 d EC50
primary human T-cells [2] = system: primary human T-cells
[3] = Homo sapiens, T-cell, 120 h, 5 days, normalized to reference compound A1 as stimulator control = 100%, DMSO neutral control

Sequence of hDGKalpha(1-735)-N-His (P23743 whole entry): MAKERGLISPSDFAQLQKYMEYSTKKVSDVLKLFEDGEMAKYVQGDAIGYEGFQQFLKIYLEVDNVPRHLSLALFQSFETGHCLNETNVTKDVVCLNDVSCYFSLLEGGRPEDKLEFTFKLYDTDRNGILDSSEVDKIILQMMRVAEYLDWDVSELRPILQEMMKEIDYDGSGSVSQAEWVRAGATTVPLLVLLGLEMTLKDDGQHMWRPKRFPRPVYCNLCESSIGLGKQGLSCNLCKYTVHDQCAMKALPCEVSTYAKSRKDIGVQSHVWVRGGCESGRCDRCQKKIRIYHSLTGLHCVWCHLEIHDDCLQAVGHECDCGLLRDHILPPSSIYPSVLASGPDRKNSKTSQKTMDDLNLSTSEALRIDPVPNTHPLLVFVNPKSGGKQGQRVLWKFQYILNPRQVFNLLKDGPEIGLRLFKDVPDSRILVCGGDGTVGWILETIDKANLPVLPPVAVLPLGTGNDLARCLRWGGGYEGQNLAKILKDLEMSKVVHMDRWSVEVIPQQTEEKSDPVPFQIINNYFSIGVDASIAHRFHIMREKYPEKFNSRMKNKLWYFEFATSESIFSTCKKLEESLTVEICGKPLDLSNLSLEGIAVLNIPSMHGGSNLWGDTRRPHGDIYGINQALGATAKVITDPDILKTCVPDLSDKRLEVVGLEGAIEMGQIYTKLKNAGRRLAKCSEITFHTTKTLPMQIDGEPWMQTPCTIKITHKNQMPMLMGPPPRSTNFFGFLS

| SMILES | IC50 (hDGKalpha(1-735)-N-His) | IC50 (hDGKzeta(1-928)-N-His) | Emax (primary human T-cells [1]; [3]) | EC50 (primary human T-cells [1]; Homo sapiens, T-cell, 120 h) | Emax (MV-3 cells) | EC50 (MV-3 cells) | EC50 (primary human T-cells [2]) | Emax proliferation (% activation) (primary human T-cells [1]; 5 days, normalized to reference compound A1 as stimulator control = 100%, DMSO neutral control) | EC50 (primary human T-cells [1]) |
| --- | --- | --- | --- | --- | --- | --- | --- | --- | --- |
| CC(C)(C)c1nnc(-c2cc3c(cc2F)S(=O)(=O)C[C@H](N)C(=O)N3Cc2ccc(OC(F)(F)F)cc2)o1 [Example 57, (3R)-3-Amino-7-(5-tert-butyl-1,3,4-oxadiazol-2-yl)-8-fluoro-1,1-dioxo-5-[[4-(trifluoromethoxy)phenyl]methyl]-2,3-dihydro-1λ^6,5-benzothiazepin-4-one] | 210 nM | 254 nM | 231% | 32.7 nM | 100% | 50 nM | 36.7 nM |  |  |
| N[C@H]1CS(=O)(=O)c2cc(F)c(-c3nnc(NC4CCCCC4)o3)cc2N(Cc2ccc(Cl)cc2)C1=O [Example 466, (3R)-3-amino-5-[(4-chlorophenyl)methyl]-7-[5-(cyclohexylamino)-1,3,4-oxadiazol-2-yl]-8-fluoro-1,1-dioxo-2,3-dihydro-λ^6,5-benzothiazepin-4-one] | 2090 nM | 1030 nM | 103% | 454 nM | 95% | 240 nM | 458 nM |  |  |
| CC1(Nc2nnc(-c3ccc4c(c3)N(Cc3ccc(Cl)cc3)C(=O)[C@@H](N)CS4(=O)=O)o2)CC(F)(F)C1 [Example 406, (3R)-3-amino-5-[(4-chlorophenyl)methyl]-7-[5-[(3,3-difluoro-1-methyl-cyclobutyl)amino]-1,3,4-oxadiazol-2-yl]-1,1-dioxo-2,3-dihydro-1λ^6,5-benzothiazepin-4-one] | 5020 nM | 14000 nM | 79% | 1860 nM | 85% | 1540 nM | 2510 nM |  |  |
| CC(C)(C)c1nnc(-c2cc3c(cc2F)[S+]([O-])C[C@H](N)C(=O)N3Cc2ccc(OC(F)(F)F)cc2)o1 (stereo partly drawn) [Example 62, (3R)-3-amino-7-(5-tert-butyl-1,3,4-oxadiazol-2-yl)-8-fluoro-1-oxo-5-[[14-(trifluoromethoxy)phenyl]methyl]-2,3-dihydro-1λ^4,5-benzothiazepin-4-one] | 452 nM | 622 nM |  |  | 81% | 260 nM | 149 nM | 88 % activation | 721 nM |
| CC(C)(C)c1nnc(-c2ccc3c(c2)N(Cc2ccc(Cl)cc2)C(=O)[C@@H](N)CS3(=O)=O)o1 [Example 361] | 876 nM | 933 nM | 100% | 361 nM | 100% | 560 nM | 525 nM |  |  |
| COC(=O)N1CC2CC(c3nnc(-c4cc5c(cc4F)S(=O)(=O)C[C@H](N)C(=O)N5Cc4ccc(Cl)cc4)o3)(C2)C1 [Example 184, methyl 1-[5-[(3R)-3-amino-5-[(4-chlorophenyl)methyl]-8-fluoro-1,1,4-trioxo-2,3-dihydro-1λ^6,5-benzothiazepin-7-yl]-1,3,4-oxadiazol-2-yl]-3-azabicyclo[3.1.1]heptane-3-carboxylate] | 244 nM | 290 nM | 77% | 24.2 nM | 79% | 90 nM | 109 nM |  |  |
| N[C@H]1CS(=O)(=O)c2ccc(-c3nnc(C4(N)CCCCC4)o3)cc2N(Cc2ccc(OC(F)(F)F)cc2)C1=O [Example 417, (3R)-3-amino-7-[5-(1-aminocyclohexyl)-1,3,4-oxadiazol-2-yl]-1,1-dioxo-5-[[4-(trifluoromethoxy)phenyl]methyl]-2,3-dihydro-1λ^6,5-benzothiazepin-4-one] | 6410 nM | 2110 nM | 70% | 337 nM | 182% | 1860 nM | 328 nM |  |  |
